Test results: ChEMBL document CHEMBL1649268, “Comparative in vitro activity profile of oritavancin against recent gram-positive clinical isolates” (2009)
Converted amounts (≈) assume the structure as drawn.

Legend:
Assay type in all cases: functional
[1] = tested on: Enterococcus faecium; experiment: Antimicrobial activity against Enterococcus faecium expressing VanA gene clinical isolates by broth microdilution method
[2] = tested on: Enterococcus faecalis; experiment: Antimicrobial activity against Enterococcus faecalis clinical isolates assessed as resistant isolates by broth microdilution method
[3] = tested on: Enterococcus faecium; experiment: Antimicrobial activity against Enterococcus faecium expressing VanB gene clinical isolates assessed as resistant isolates by broth microdilution method
[4] = tested on: Enterococcus faecium; experiment: Antimicrobial activity against vancomycin-nonsusceptible Enterococcus faecium clinical isolates by broth microdilution method
[5] = tested on: Enterococcus faecalis; experiment: Antimicrobial activity against vancomycin-nonsusceptible Enterococcus faecalis clinical isolates assessed as percent susceptible isolates by broth microdilution method
[6] = tested on: Enterococcus faecalis; experiment: Antimicrobial activity against vancomycin-nonsusceptible Enterococcus faecalis clinical isolates assessed as resistant isolates by broth microdilution method
[7] = tested on: Enterococcus faecalis; experiment: Antimicrobial activity against Enterococcus faecalis expressing VanA gene clinical isolates by broth microdilution method
[8] = tested on: Enterococcus faecium; experiment: Antimicrobial activity against Enterococcus faecium clinical isolates assessed as percent susceptible isolates by broth microdilution method
[9] = tested on: Enterococcus faecium; experiment: Antimicrobial activity against vancomycin-susceptible Enterococcus faecium clinical isolates assessed as percent susceptible isolates by broth microdilution method
[10] = tested on: Enterococcus faecium; experiment: Antimicrobial activity against Enterococcus faecium expressing VanB gene clinical isolates by broth microdilution method
[11] = tested on: Enterococcus faecium; experiment: Antimicrobial activity against vancomycin-susceptible Enterococcus faecium clinical isolates assessed as resistant isolates by broth microdilution method
[12] = tested on: Enterococcus faecalis; experiment: Antimicrobial activity against Enterococcus faecalis expressing VanB gene clinical isolates assessed as percent susceptible isolates by broth microdilution method
[13] = tested on: Enterococcus faecalis; experiment: Antimicrobial activity against vancomycin-susceptible Enterococcus faecalis clinical isolates assessed as resistant isolates by broth microdilution method
[14] = tested on: Enterococcus faecium; experiment: Antimicrobial activity against vancomycin-susceptible Enterococcus faecium clinical isolates by broth microdilution method
[15] = tested on: Enterococcus faecium; experiment: Antimicrobial activity against Enterococcus faecium expressing VanA gene clinical isolates assessed as percent susceptible isolates by broth microdilution method
[16] = tested on: Enterococcus faecalis; experiment: Antimicrobial activity against vancomycin-susceptible Enterococcus faecalis clinical isolates assessed as percent susceptible isolates by broth microdilution method
[17] = tested on: Enterococcus faecalis; experiment: Antimicrobial activity against Enterococcus faecalis clinical isolates assessed as percent susceptible isolates by broth microdilution method
[18] = tested on: Enterococcus faecalis; experiment: Antimicrobial activity against Enterococcus faecalis expressing VanA gene clinical isolates assessed as resistant isolates by broth microdilution method
[19] = tested on: Enterococcus faecium; experiment: Antimicrobial activity against Enterococcus faecium clinical isolates assessed as resistant isolates by broth microdilution method
[20] = tested on: Enterococcus faecalis; experiment: Antimicrobial activity against Enterococcus faecalis expressing VanA gene clinical isolates assessed as percent susceptible isolates by broth microdilution method
[21] = tested on: Enterococcus faecalis; experiment: Antimicrobial activity against Enterococcus faecalis expressing VanB gene clinical isolates by broth microdilution method
[22] = tested on: Enterococcus faecium; experiment: Antimicrobial activity against Enterococcus faecium expressing VanB gene clinical isolates assessed as percent susceptible isolates by broth microdilution method
[23] = tested on: Enterococcus faecium; experiment: Antimicrobial activity against vancomycin-nonsusceptible Enterococcus faecium clinical isolates assessed as percent susceptible isolates by broth microdilution method
[24] = tested on: Enterococcus faecalis; experiment: Antimicrobial activity against vancomycin-nonsusceptible Enterococcus faecalis clinical isolates by broth microdilution method
[25] = tested on: Enterococcus faecalis; experiment: Antimicrobial activity against Enterococcus faecalis expressing VanB gene clinical isolates assessed as resistant isolates by broth microdilution method
[26] = tested on: Enterococcus faecalis; experiment: Antimicrobial activity against vancomycin-susceptible Enterococcus faecalis clinical isolates by broth microdilution method
[27] = tested on: Enterococcus faecium; experiment: Antimicrobial activity against Enterococcus faecium clinical isolates by broth microdilution method
[28] = tested on: Enterococcus faecium; experiment: Antimicrobial activity against vancomycin-nonsusceptible Enterococcus faecium clinical isolates assessed as resistant isolates by broth microdilution method
[29] = tested on: Enterococcus faecalis; experiment: Antimicrobial activity against Enterococcus faecalis clinical isolates by broth microdilution method
[30] = tested on: Enterococcus faecium; experiment: Antimicrobial activity against Enterococcus faecium expressing VanA gene clinical isolates assessed as resistant isolates by broth microdilution method
[31] = tested on: Streptococcus pneumoniae; experiment: Antimicrobial activity against penicillin-resistant Streptococcus pneumoniae clinical isolates assessed as resistant isolates by broth microdilution method
[32] = tested on: Streptococcus pneumoniae; experiment: Antimicrobial activity against penicillin-susceptible Streptococcus pneumoniae clinical isolates by broth microdilution method
[33] = tested on: Streptococcus pneumoniae; experiment: Antimicrobial activity against penicillin-susceptible Streptococcus pneumoniae clinical isolates assessed as percent susceptible isolates by broth microdilution method
[34] = tested on: Streptococcus pneumoniae; experiment: Antimicrobial activity against penicillin-intermediate Streptococcus pneumoniae clinical isolates by broth microdilution method
[35] = tested on: Streptococcus pneumoniae; experiment: Antimicrobial activity against Streptococcus pneumoniae clinical isolates by broth microdilution method
[36] = tested on: Streptococcus pneumoniae; experiment: Antimicrobial activity against penicillin-susceptible Streptococcus pneumoniae clinical isolates assessed as resistant isolates by broth microdilution method
[37] = tested on: Streptococcus pneumoniae; experiment: Antimicrobial activity against penicillin-resistant Streptococcus pneumoniae clinical isolates assessed as percent susceptible isolates by broth microdilution method
[38] = tested on: Streptococcus pneumoniae; experiment: Antimicrobial activity against penicillin-resistant Streptococcus pneumoniae clinical isolates by broth microdilution method
[39] = tested on: Streptococcus pneumoniae; experiment: Antimicrobial activity against Streptococcus pneumoniae clinical isolates assessed as percent susceptible isolates by broth microdilution method
[40] = tested on: Streptococcus pneumoniae; experiment: Antimicrobial activity against Streptococcus pneumoniae clinical isolates assessed as resistant isolates by broth microdilution method
[41] = tested on: Streptococcus pneumoniae; experiment: Antimicrobial activity against penicillin-intermediate Streptococcus pneumoniae clinical isolates assessed as resistant isolates by broth microdilution method
[42] = tested on: Streptococcus pneumoniae; experiment: Antimicrobial activity against penicillin-intermediate Streptococcus pneumoniae clinical isolates assessed as percent susceptible isolates by broth microdilution method

## GENTAMICIN
[1]
  MIC: > 500 µg/mL
  MIC90: > 500 µg/mL
[2]
  Activity: 34.6%
[3]
  Activity: 24.1%
[4]
  MIC: > 500 µg/mL
  MIC90: > 500 µg/mL
[5]
  Activity: 19.5%
[6]
  Activity: 80.5%
[7]
  MIC: > 500 µg/mL
  MIC90: > 500 µg/mL
[8]
  Activity: 68.3%
[9]
  Activity: 74.9%
[10]
  MIC: > 500 µg/mL
  MIC90: > 500 µg/mL
[11]
  Activity: 25.1%
[12]
  Activity: 29.4%
[13]
  Activity: 32.2%
[14]
  MIC: > 500 µg/mL
  MIC90: > 500 µg/mL
[15]
  Activity: 62.9%
[16]
  Activity: 67.8%
[17]
  Activity: 65.4%
[18]
  Activity: 83.1%
[19]
  Activity: 31.7%
[20]
  Activity: 16.9%
[21]
  MIC: > 500 µg/mL
  MIC90: > 500 µg/mL
[22]
  Activity: 75.9%
[23]
  Activity: 63.3%
[24]
  MIC: > 500 µg/mL
  MIC90: > 500 µg/mL
[25]
  Activity: 70.6%
[26]
  MIC: > 500 µg/mL
  MIC90: > 500 µg/mL
[27]
  MIC: > 500 µg/mL
  MIC90: > 500 µg/mL
[28]
  Activity: 36.7%
[29]
  MIC: > 500 µg/mL
  MIC90: > 500 µg/mL
[30]
  Activity: 37.1%

## CO/N=C(\C(=O)N[C@@H]1C(=O)N2C(C(=O)OC(C)OC(C)=O)=C(COC(N)=O)CS[C@H]12)c1ccco1 (stereo partly drawn) [CEFUROXIME AXETIL]
[31]
  Percent of isolates resistant: 99.3%
[32]
  MIC: ≤ 0.12 µg/mL
  MIC90: ≤ 0.12 µg/mL
[33]
  Activity: 100%
[34]
  MIC90: 4 µg/mL (≈ 7.84 µM)
[35]
  MIC90: 4 µg/mL (≈ 7.84 µM)
[36]
  Percent of isolates resistant: 0%
[37]
  Activity: 0%
[38]
  MIC90: > 4 µg/mL
[39]
  Activity: 75.9%
[40]
  Resistant isolates: 18.9%
[41]
  Percent of isolates resistant: 20.4%
[42]
  Activity: 56%

## CN[C@@H]1[C@H](O[C@H]2[C@H](O[C@H]3[C@H](O)[C@@H](O)[C@H](N=C(N)N)[C@@H](O)[C@@H]3N=C(N)N)O[C@@H](C)[C@]2(O)C=O)O[C@@H](CO)[C@H](O)[C@H]1O [STREPTOMYCIN]
[1]
  MIC: ≥ 1000 µg/mL
  MIC90: > 1000 µg/mL
[2]
  Activity: 29.9%
[3]
  Activity: 65.5%
[4]
  MIC: ≥ 1000 µg/mL
  MIC90: > 1000 µg/mL
[5]
  Activity: 48.3%
[6]
  Activity: 51.7%
[7]
  MIC: ≥ 1000 µg/mL
  MIC90: > 1000 µg/mL
[8]
  Activity: 44.8%
[9]
  Activity: 56%
[10]
  MIC: ≥ 1000 µg/mL
  MIC90: > 1000 µg/mL
[11]
  Activity: 44%
[12]
  Activity: 41.2%
[13]
  Activity: 28.7%
[14]
  MIC: ≥ 1000 µg/mL
  MIC90: > 1000 µg/mL
[15]
  Activity: 36.1%
[16]
  Activity: 71.3%
[17]
  Activity: 70.1%
[18]
  Activity: 50.8%
[19]
  Activity: 55.2%
[20]
  Activity: 49.2%
[21]
  MIC: ≥ 1000 µg/mL
  MIC90: > 1000 µg/mL
[22]
  Activity: 34.5%
[23]
  Activity: 36.5%
[24]
  MIC: ≥ 1000 µg/mL
  MIC90: > 1000 µg/mL
[25]
  Activity: 58.8%
[26]
  MIC: ≥ 1000 µg/mL
  MIC90: > 1000 µg/mL
[27]
  MIC: ≥ 1000 µg/mL
  MIC90: > 1000 µg/mL
[28]
  Activity: 63.5%
[29]
  MIC: ≥ 1000 µg/mL
  MIC90: > 1000 µg/mL
[30]
  Activity: 63.9%
